Columns and labels:
[1] = Photostability under continuous 760-nm irradiation in 5% BSA; type: physicochemical; details: 5% BSA solution, NIR imaging conditions
Procedure: To investigate the photostability of ALS04 and ALS05, 10 mM stock solutions were diluted to obtain working solutions, with concentrations of 100, 50, 20, and 10 μM in 5% BSA solution, which were then dispensed into a black 96-well plate. Subsequently, the 200-μl working solutions were exposed to continuous irradiation using a 760-nm laser diode at 4 mW/cm^2, with white light (400 to 650 nm) at 40,000 lux, and imaged for 240 min. The fluorescence (%) was calculated by analyzing the measured values with ImageJ v1.52 (National Institutes of Health, Bethesda, MD, USA) using images captured at each time point. The data, presented as mean ± SD, assessed stability by measuring regions of interest (ROIs) and comparing fluorescence intensity against the initial fluorescence signal.

[2] = tested on: SH-SY5Y cells and fibroblast NIH3T3 cells; experiment: Cytotoxicity, Cell Counting Kit-8 (CCK-8); type: cell-based; details: Homo sapiens, 0 to 20 μM, 24 h, read-out: IC50 (cell viability)
Procedure: Cell viability was assessed using Cell Counting Kit-8 (CCK-8) from Dojindo Molecular Technologies Inc. (Kumamoto, Japan). Briefly, SH-SY5Y and NIH3T3 cells were seeded into 96-well plates at a density of 2,500 cells per well. The cells were then treated with 0 to 20 μM of each fluorophore in growth medium for 24 h, and 10% CCK-8 solutions were added to each well. The plates were incubated at 37 °C for 4 h, and absorbance was measured at 450 nm using a SpectraMax M5 plate reader (Molecular Devices). Cell viability (%) = (Asample − Ab)/(Ac − Ab) × 100, where Asample, Ab, and Ac denote the absorbance reading of sample, blanks, and negative control wells, respectively.

[3] = Solubility in 5% BSA in saline; type: physicochemical; details: 5% bovine serum albumin in saline, plasma or biological fluid, thermodynamic from solid
Procedure: MarvinSketch (ver. 23.11) and InstantJChem (ver. 23.17) calculator plug-ins (ChemAxon, Budapest, Hungary) were used to calculate in silico physicochemical property, such as molecular weight (MW), the partition and distribution coefficient (LogP and LogD at pH 7.4), surface molecular charge, hydrophobicity, the hydrogen bond acceptors/donors (HBA/HBD), the acid dissociation constant (pKa), the topological polar surface area (TPSA), and BBB score. The BBB score is determined by 5 key physicochemical descriptors, including the number of aromatic rings, the number of heavy atoms, MWHBN (a parameter derived from MW and the number of HBA/HBD), TPSA, and pKa. […] The absorbance and fluorescence emission spectra of ALS04 and ALS05 at varying concentrations were measured in dimethyl sulfoxide (DMSO) using HR2000 absorbance spectrometers (200 to 1,100 nm) and USB2000FL fluorescence spectrometers (350 to 1,000 nm) from Ocean Optics (Dunedin, FL). Fluorescence emission spectra were collected under NIR excitation using a 760-nm laser pointer (Opcom Inc., Xiamen, China). […] The fluorescence emission spectrum was integrated and plotted as a function of absorbance at 755 nm, and a linear fit was applied to determine the slope between fluorescence intensity and absorbance. […] Following this, the solution was centrifuged at 1,500g for 10 min, and the absorbance of the supernatant was measured. […]

[4] = Optical properties (absorbance, fluorescence, quantum yield) in DMSO; type: physicochemical
Procedure: MarvinSketch (ver. 23.11) and InstantJChem (ver. 23.17) calculator plug-ins (ChemAxon, Budapest, Hungary) were used to calculate in silico physicochemical property, such as molecular weight (MW), the partition and distribution coefficient (LogP and LogD at pH 7.4), surface molecular charge, hydrophobicity, the hydrogen bond acceptors/donors (HBA/HBD), the acid dissociation constant (pKa), the topological polar surface area (TPSA), and BBB score. The BBB score is determined by 5 key physicochemical descriptors, including the number of aromatic rings, the number of heavy atoms, MWHBN (a parameter derived from MW and the number of HBA/HBD), TPSA, and pKa. The final score is computed using stepwise methods for descriptors with discrete values and polynomial weight functions for descriptors with continuous ranges (ChemAxon). The absorbance and fluorescence emission spectra of ALS04 and ALS05 at varying concentrations were measured in dimethyl sulfoxide (DMSO) using HR2000 absorbance spectrometers (200 to 1,100 nm) and USB2000FL fluorescence spectrometers (350 to 1,000 nm) from Ocean Optics (Dunedin, FL). Fluorescence emission spectra were collected under NIR excitation using a 760-nm laser pointer (Opcom Inc., Xiamen, China). […] The fluorescence emission spectrum was integrated and plotted as a function of absorbance at 755 nm, and a linear fit was applied to determine the slope between fluorescence intensity and absorbance. […] A small, accurately weighed amount of each fluorophore was added to a minimal volume of solvents, and the saturated solution was then vortexed and sonicated for 5 min to ensure complete dissolution of the solids. Following this, the solution was centrifuged at 1,500g for 10 min, and the absorbance of the supernatant was measured. The solubility (g/l) was calculated by multiplying the maximum absorbance-derived concentration by the MW of each fluorophore.

SOD1^G93A mice = experiment: Biodistribution and targeting in ALS mouse model by NIR imaging; type: in vivo; details: 25 nmol retro-orbital, 4 h post-injection
Procedure: For biodistribution and targeting studies, 12-week-old B6SJLF1/J (SOD1^G93A)1Gur male mice (25 to 30 g) were purchased from the Charles River Laboratories (Wilmington, MA). Animals were housed in an AAALAC-certified facility [Massachusetts General Hospital (MGH) #D16-00361], and all animal studies were performed in accordance with the Public Health Service Policy on Humane Care of Laboratory Animals and approved by the MGH Institutional Animal Care and Use Committee (IACUC) (#N2016000136). […] Each mouse was set on the wire lid of a typical housing cage, which was then turned on its side. It was timed how long it took after the test started for the mouse to stand with at least 2 limbs on the lid. The longest latency was noted after the animals were given 3 chances to stand for a maximum of 3 min per trial. The hemizygous SOD1^G93A mice were selected via genotyping polymerase chain reaction (PCR) assay. Mice were fed chlorophyll-free mouse chow (VWR International. Radnor, PA) at least 5 d prior to imaging to minimize autofluorescence. […]
For all real-time intraoperative imaging, a standardized imaging protocol was employed throughout the procedure using our custom-made imaging system, as previously described. […] The signal-to-background ratio (SBR) was calculated as follows: SBR=IROI/IAuto (2) where IROI denotes the average intensity of an ROI and IAuto represents the intensity of the muscle.

CN1/C(=C/C2=CC3=C/C(=C/c4sc5ccccc5[n+]4C)CCC3CC2)Sc2ccccc21 (stereo not shown) [ALS04]
Photostability (retained fluorescence) at 10 μM ([1]; 10 μM, 240 min): 60%
Photostability (retained fluorescence) ([1]; up to 240 min): over 90%
IC50 [2]: ~1300 nM
solubility at 5 min [3]: 2530 µg/mL
Ext. coeff. (molar absorptivity) [4]: 169,600 M^-1cm^-1
Max. Abs (excitation maximum) [4]: 751 nm
Max. Fl (emission maximum) [4]: 774 nm
QY (quantum yield) ([4]; ICG as reference): 6.0%
Uptake in BAT of SOD1^G93A mice compared to sham mice (SOD1^G93A mice; 3-month-old asymptomatic mice, ****P ≤ 0.0001): significantly reduced
Signals in ventral temporal (VT) lobe and third ventricle (3v) of ALS mice compared to sham mice (SOD1^G93A mice; **P ≤ 0.01): significantly higher

Source: article PMC11912748, “Image-Guided Monitoring of Mitochondria and Blood–Brain Barrier Dysfunction in Amyotrophic Lateral Sclerosis Mice” (Biomaterials Research, 2025)
